Measurements from PMC9569420 (Communications Biology, 2022).

Assays:
ULK1 = target: T1, ULK1 (Homo sapiens, UniProt O75385); assay: biochemical; conditions: read-out: % Enzyme Activity (relative to DMSO controls)
T1 construct: purchased Reaction Biology Corporation

LIMK2 = target: T2, LIMK2 (Homo sapiens, UniProt P53671); assay: HotSpot kinase assay; type: biochemical; conditions: read-out: % Enzyme Activity (relative to DMSO controls)
T2 construct: purchased Reaction Biology Corporation

RSK2 = target: T3, RSK2 (Homo sapiens, UniProt P51812); assay: HotSpot kinase assay; type: biochemical; conditions: read-out: % Enzyme Activity (relative to DMSO controls)
T3 construct: purchased Reaction Biology Corporation
T3 sequence (P51812 whole entry): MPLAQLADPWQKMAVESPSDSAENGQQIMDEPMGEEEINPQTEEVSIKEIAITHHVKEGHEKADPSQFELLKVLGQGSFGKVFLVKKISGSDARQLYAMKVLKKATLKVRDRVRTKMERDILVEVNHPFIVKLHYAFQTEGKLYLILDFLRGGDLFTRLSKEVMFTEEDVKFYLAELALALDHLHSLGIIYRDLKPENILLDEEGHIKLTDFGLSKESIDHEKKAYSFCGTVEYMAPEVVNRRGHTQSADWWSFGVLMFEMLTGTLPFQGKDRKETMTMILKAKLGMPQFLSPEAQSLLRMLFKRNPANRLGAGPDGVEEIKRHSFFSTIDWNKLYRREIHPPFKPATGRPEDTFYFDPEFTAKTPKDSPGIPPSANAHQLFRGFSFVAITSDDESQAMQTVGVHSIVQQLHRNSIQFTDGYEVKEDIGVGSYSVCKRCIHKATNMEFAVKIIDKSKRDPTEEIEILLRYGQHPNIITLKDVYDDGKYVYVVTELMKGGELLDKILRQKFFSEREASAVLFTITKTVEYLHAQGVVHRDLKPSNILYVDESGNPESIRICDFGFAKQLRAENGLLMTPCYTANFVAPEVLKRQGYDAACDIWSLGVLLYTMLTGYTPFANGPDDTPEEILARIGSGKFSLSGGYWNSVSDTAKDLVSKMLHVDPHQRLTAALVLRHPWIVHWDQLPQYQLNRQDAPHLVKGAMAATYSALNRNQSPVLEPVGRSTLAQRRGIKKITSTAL

IRAK4 = target: T4, IRAK4 (Homo sapiens, UniProt Q9NWZ3); assay: HotSpot kinase assay; type: biochemical; conditions: read-out: % Enzyme Activity (relative to DMSO controls)
T4 construct: purchased Reaction Biology Corporation

TYK1/LTK = target: T5, TYK1/LTK (Homo sapiens, UniProt P29376); assay: HotSpot kinase assay; type: biochemical; conditions: read-out: % Enzyme Activity (relative to DMSO controls)
T5 construct: purchased Reaction Biology Corporation

JNK1 = target: T6, JNK1 (Homo sapiens, UniProt P45983); assay: HotSpot kinase assay; type: biochemical; conditions: read-out: % Enzyme Activity (relative to DMSO controls)
T6 construct: purchased Reaction Biology Corporation

DYRK3 = target: T7, DYRK3 (Homo sapiens, UniProt O43781); assay: HotSpot kinase assay; type: biochemical; conditions: read-out: % Enzyme Activity (relative to DMSO controls)
T7 construct: purchased Reaction Biology Corporation
T7 sequence (O43781 whole entry): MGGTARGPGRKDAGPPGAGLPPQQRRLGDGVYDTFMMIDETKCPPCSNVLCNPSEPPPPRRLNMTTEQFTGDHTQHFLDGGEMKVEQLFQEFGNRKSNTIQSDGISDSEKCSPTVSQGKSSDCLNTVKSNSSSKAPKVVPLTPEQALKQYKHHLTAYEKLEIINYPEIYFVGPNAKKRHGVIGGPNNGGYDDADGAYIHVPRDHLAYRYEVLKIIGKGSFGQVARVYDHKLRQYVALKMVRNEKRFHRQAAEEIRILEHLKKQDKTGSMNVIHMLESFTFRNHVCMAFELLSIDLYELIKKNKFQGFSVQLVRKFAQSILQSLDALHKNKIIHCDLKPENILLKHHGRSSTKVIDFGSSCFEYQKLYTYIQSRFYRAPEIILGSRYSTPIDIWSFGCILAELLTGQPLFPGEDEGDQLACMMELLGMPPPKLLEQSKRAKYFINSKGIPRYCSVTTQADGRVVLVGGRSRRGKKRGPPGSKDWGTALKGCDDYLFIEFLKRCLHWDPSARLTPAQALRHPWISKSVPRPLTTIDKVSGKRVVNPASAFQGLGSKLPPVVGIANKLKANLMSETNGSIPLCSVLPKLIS

RSK1 = target: T8, RSK1 (Homo sapiens, UniProt Q15418); assay: HotSpot kinase assay; type: biochemical; conditions: read-out: % Enzyme Activity (relative to DMSO controls)
T8 construct: purchased Reaction Biology Corporation

LIMK1 = target: T9, LIMK1 (Homo sapiens, UniProt P53667); assay: HotSpot kinase assay; type: biochemical; conditions: read-out: % Enzyme Activity (relative to DMSO controls)
T9 construct: purchased Reaction Biology Corporation
T9 sequence (P53667 whole entry): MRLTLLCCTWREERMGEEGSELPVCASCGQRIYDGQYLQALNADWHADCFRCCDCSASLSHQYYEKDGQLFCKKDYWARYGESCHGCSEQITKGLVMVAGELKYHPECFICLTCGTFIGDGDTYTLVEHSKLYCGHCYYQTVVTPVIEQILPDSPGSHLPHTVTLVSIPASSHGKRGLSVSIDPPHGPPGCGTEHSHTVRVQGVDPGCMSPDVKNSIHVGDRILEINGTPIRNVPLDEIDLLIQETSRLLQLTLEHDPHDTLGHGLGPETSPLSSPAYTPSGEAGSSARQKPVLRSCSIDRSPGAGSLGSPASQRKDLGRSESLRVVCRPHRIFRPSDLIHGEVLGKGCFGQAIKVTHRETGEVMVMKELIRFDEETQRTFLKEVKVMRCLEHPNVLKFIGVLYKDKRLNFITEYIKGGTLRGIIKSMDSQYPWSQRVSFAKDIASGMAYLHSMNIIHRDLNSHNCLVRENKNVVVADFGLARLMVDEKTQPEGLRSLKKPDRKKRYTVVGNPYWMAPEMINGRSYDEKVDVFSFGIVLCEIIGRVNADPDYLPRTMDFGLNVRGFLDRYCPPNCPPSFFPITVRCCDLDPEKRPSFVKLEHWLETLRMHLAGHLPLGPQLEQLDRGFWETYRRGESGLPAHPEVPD

LYN B = target: T10, LYN B (Homo sapiens, UniProt P07948); assay: HotSpot kinase assay; type: biochemical; conditions: read-out: % Enzyme Activity (relative to DMSO controls)
T10 construct: purchased Reaction Biology Corporation

GRK3 = target: T11, GRK3 (Homo sapiens, UniProt P35626); assay: HotSpot kinase assay; type: biochemical; conditions: read-out: % Enzyme Activity (relative to DMSO controls)
T11 construct: purchased Reaction Biology Corporation

SIK2 = target: T12, SIK2 (Homo sapiens, UniProt Q9H0K1); assay: HotSpot kinase assay; type: biochemical; conditions: read-out: % Enzyme Activity (relative to DMSO controls)
T12 construct: purchased Reaction Biology Corporation

STK32B/YANK2 = target: T13, STK32B/YANK2 (Homo sapiens, UniProt Q9NY57); assay: HotSpot kinase assay; type: biochemical; conditions: read-out: % Enzyme Activity (relative to DMSO controls)
T13 construct: purchased Reaction Biology Corporation
T13 sequence (Q9NY57 whole entry): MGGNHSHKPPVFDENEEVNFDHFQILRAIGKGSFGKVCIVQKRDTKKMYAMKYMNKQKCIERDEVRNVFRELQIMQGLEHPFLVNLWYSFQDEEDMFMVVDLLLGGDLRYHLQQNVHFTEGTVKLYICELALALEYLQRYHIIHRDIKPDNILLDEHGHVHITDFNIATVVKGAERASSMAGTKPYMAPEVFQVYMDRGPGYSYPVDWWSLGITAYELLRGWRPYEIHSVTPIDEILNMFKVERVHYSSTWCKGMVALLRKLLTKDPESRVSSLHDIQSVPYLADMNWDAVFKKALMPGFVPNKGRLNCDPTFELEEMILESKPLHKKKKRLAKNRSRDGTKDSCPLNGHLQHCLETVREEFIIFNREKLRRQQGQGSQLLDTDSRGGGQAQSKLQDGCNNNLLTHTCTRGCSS

LRRK2 = target: T14, LRRK2 (Homo sapiens, UniProt Q5S007); assay: HotSpot kinase assay; type: biochemical; conditions: read-out: % Enzyme Activity (relative to DMSO controls)
T14 construct: purchased Reaction Biology Corporation

CDK9/cyclin T1 = target: T15, CDK9/cyclin T1 (Homo sapiens, UniProt P50750); assay: HotSpot kinase assay; type: biochemical; conditions: read-out: % Enzyme Activity (relative to DMSO controls)
T15 construct: purchased Reaction Biology Corporation

CDK4/cyclin D3 = target: T16, CDK4/cyclin D3 (Homo sapiens, UniProt P11802); assay: HotSpot kinase assay; type: biochemical; conditions: read-out: % Enzyme Activity (relative to DMSO controls)
T16 construct: purchased Reaction Biology Corporation

IKKb/IKBKB = target: T17, IKKb/IKBKB (Homo sapiens, UniProt O14920); assay: HotSpot kinase assay; type: biochemical; conditions: read-out: % Enzyme Activity (relative to DMSO controls)
T17 construct: purchased Reaction Biology Corporation
T17 sequence (O14920 whole entry): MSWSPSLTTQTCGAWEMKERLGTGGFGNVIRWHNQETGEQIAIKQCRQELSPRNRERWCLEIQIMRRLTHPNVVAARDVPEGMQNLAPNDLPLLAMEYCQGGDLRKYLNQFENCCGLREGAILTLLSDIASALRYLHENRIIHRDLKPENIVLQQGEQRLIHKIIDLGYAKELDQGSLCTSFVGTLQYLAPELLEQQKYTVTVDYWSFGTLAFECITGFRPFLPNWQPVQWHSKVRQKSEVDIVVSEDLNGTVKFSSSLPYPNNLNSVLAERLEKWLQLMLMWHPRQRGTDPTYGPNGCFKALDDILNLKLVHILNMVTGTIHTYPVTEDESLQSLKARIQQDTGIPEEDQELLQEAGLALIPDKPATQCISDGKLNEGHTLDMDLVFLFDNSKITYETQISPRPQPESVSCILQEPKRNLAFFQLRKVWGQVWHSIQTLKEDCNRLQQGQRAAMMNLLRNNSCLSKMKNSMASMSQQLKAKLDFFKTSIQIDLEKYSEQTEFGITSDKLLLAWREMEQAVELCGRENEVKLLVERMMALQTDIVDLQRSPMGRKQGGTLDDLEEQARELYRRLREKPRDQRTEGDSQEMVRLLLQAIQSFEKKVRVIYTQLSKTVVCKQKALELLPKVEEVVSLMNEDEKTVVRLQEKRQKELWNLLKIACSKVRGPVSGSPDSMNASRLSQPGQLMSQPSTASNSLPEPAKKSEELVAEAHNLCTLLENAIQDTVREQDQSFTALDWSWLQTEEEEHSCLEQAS

EPHA5 = target: T18, EPHA5 (Homo sapiens, UniProt P54756); assay: HotSpot kinase assay; type: biochemical; conditions: read-out: % Enzyme Activity (relative to DMSO controls)
T18 construct: purchased Reaction Biology Corporation

MYLK3 = target: T19, MYLK3 (Homo sapiens, UniProt Q32MK0); assay: HotSpot kinase assay; type: biochemical; conditions: read-out: % Enzyme Activity (relative to DMSO controls)
T19 construct: purchased Reaction Biology Corporation

TLK1 = target: T20, TLK1 (Homo sapiens, UniProt Q9UKI8); assay: HotSpot kinase assay; type: biochemical; conditions: read-out: % Enzyme Activity (relative to DMSO controls)
T20 construct: purchased Reaction Biology Corporation
T20 sequence (Q9UKI8 whole entry): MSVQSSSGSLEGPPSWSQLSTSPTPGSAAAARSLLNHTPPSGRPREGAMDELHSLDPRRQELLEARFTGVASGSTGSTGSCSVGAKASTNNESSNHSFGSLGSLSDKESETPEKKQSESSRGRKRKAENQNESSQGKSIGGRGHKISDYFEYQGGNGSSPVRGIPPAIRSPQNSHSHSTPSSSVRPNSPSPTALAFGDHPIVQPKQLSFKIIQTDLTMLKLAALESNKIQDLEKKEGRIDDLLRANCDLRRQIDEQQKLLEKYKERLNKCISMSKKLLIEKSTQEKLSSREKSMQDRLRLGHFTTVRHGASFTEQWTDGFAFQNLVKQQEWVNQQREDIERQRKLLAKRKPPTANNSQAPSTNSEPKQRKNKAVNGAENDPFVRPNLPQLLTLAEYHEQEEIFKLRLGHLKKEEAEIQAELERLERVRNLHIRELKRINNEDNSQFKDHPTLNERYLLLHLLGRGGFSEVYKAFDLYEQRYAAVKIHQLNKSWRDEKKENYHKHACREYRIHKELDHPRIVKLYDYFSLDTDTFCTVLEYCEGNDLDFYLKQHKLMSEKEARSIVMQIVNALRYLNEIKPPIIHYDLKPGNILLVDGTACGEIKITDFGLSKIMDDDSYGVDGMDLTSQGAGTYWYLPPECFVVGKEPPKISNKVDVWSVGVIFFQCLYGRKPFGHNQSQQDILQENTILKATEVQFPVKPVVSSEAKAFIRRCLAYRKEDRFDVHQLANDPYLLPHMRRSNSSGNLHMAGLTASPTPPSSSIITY

ALK3/BMPR1A = target: T21, ALK3/BMPR1A (Homo sapiens, UniProt P36894); assay: HotSpot kinase assay; type: biochemical; conditions: read-out: % Enzyme Activity (relative to DMSO controls)
T21 construct: purchased Reaction Biology Corporation

p70S6K/RPS6KB1 = target: T22, p70S6K/RPS6KB1 (Homo sapiens, UniProt P23443); assay: HotSpot kinase assay; type: biochemical; conditions: read-out: % Enzyme Activity (relative to DMSO controls)
T22 construct: purchased Reaction Biology Corporation

MLCK2/MYLK2 = target: T23, MLCK2/MYLK2 (Homo sapiens, UniProt Q9H1R3); assay: HotSpot kinase assay; type: biochemical; conditions: read-out: % Enzyme Activity (relative to DMSO controls)
T23 construct: purchased Reaction Biology Corporation
T23 sequence (Q9H1R3 whole entry): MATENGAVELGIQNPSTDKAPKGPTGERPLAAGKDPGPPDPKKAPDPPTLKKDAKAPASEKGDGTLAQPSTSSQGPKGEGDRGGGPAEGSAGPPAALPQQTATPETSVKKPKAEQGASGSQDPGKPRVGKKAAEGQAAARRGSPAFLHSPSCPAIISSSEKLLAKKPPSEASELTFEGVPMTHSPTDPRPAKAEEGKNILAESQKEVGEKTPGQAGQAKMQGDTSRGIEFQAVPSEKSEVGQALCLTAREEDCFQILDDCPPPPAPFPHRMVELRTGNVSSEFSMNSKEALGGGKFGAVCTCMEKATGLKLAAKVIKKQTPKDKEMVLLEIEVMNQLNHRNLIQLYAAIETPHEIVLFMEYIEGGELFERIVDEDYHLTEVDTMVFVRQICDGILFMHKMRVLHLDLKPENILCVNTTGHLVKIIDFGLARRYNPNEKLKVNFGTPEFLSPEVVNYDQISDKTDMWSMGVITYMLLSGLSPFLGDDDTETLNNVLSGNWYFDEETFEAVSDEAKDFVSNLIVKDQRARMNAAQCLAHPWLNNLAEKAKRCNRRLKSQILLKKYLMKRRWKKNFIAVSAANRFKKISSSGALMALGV

[1] = cell proliferation and viability, ~50% confluent; conditions: human, cell proliferation and viability, odu as a percentage of the DMSO control, 120 h (Fig 1d source data)
[2] = test system: Primary vaginal epithelial cells; assay: cell proliferation and viability, ~50% confluent; conditions: for cell proliferation and viability, odu as a percentage of the DMSO control: 120 h (Fig 1d source data)
MST2/STK3 = target: T24, MST2/STK3 (Homo sapiens, UniProt Q13188); assay: HotSpot kinase assay; type: biochemical; conditions: read-out: % Enzyme Activity (relative to DMSO controls)
T24 construct: purchased Reaction Biology Corporation

CTK/MATK = target: T25, CTK/MATK (Homo sapiens, UniProt P42679); assay: HotSpot kinase assay; type: biochemical; conditions: read-out: % Enzyme Activity (relative to DMSO controls)
T25 construct: purchased Reaction Biology Corporation
T25 sequence (P42679 whole entry): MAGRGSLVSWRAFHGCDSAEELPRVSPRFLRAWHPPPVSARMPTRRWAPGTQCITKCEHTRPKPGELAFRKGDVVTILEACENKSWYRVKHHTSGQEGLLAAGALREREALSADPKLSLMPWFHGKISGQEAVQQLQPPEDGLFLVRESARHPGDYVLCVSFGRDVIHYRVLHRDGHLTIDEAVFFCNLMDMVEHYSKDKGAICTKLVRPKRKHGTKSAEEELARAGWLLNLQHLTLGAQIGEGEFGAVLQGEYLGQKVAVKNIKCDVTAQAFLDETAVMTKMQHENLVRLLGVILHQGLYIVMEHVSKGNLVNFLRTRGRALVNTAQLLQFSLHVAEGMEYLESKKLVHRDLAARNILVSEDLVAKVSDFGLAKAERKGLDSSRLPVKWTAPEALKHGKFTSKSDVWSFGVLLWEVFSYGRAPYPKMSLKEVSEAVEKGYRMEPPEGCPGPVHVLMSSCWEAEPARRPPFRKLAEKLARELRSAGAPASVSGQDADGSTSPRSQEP

CDK5/p35 = target: T26, CDK5/p35 (Homo sapiens, UniProt Q00535); assay: HotSpot kinase assay; type: biochemical; conditions: read-out: % Enzyme Activity (relative to DMSO controls)
T26 construct: purchased Reaction Biology Corporation

CDK9/cyclin T2 = target: T27, CDK9/cyclin T2 (Homo sapiens, UniProt P50750); assay: HotSpot kinase assay; type: biochemical; conditions: read-out: % Enzyme Activity (relative to DMSO controls)
T27 construct: purchased Reaction Biology Corporation

PKG2/PRKG2 = target: T28, PKG2/PRKG2 (Homo sapiens, UniProt Q13237); assay: HotSpot kinase assay; type: biochemical; conditions: read-out: % Enzyme Activity (relative to DMSO controls)
T28 construct: purchased Reaction Biology Corporation

TRKB = target: T29, TRKB (Homo sapiens, UniProt Q16620); assay: HotSpot kinase assay; type: biochemical; conditions: read-out: % Enzyme Activity (relative to DMSO controls)
T29 construct: purchased Reaction Biology Corporation

TAOK3/JIK = target: T30, TAOK3/JIK (Homo sapiens, UniProt Q9H2K8); assay: HotSpot kinase assay; type: biochemical; conditions: read-out: % Enzyme Activity (relative to DMSO controls)
T30 construct: purchased Reaction Biology Corporation

YSK4/MAP3K19 = target: T31, YSK4/MAP3K19 (Homo sapiens, UniProt Q56UN5); assay: HotSpot kinase assay; type: biochemical; conditions: read-out: % Enzyme Activity (relative to DMSO controls)
T31 construct: purchased Reaction Biology Corporation

DAPK1 = target: T32, DAPK1 (Homo sapiens, UniProt P53355); assay: HotSpot kinase assay; type: biochemical; conditions: read-out: % Enzyme Activity (relative to DMSO controls)
T32 construct: purchased Reaction Biology Corporation

MLK1/MAP3K9 = target: T33, MLK1/MAP3K9 (Homo sapiens, UniProt P80192); assay: HotSpot kinase assay; type: biochemical; conditions: read-out: % Enzyme Activity (relative to DMSO controls)
T33 construct: purchased Reaction Biology Corporation

ACK1 = target: T34, ACK1 (Homo sapiens, UniProt Q07912); assay: HotSpot kinase assay; type: biochemical; conditions: read-out: % Enzyme Activity (relative to DMSO controls)
T34 construct: purchased Reaction Biology Corporation

CO[C@@H]1[C@H](N(C)C(=O)CCC(=O)NCc2cn(CCCS(=O)(=O)O)nn2)C[C@H]2O[C@]1(C)n1c3ccccc3c3c4c(c5c6ccccc6n2c5c31)C(=O)NC4 [CIMSS]
remaining activity at 10 µM (ULK1): 13.6% | remaining activity at 10 µM (LIMK2): 67.4% | remaining activity at 10 µM (RSK2): 1.69% | remaining activity at 10 µM (IRAK4): 6.48% | remaining activity at 10 µM (TYK1/LTK): 7.18% | remaining activity at 10 µM (JNK1): 24.8% | remaining activity at 10 µM (DYRK3): 28.2% | remaining activity at 10 µM (RSK1): 3.27% | remaining activity at 10 µM (LIMK1): 0.88% | remaining activity at 10 µM (LYN B): 2.95% | remaining activity at 10 µM (GRK3): 46.9% | remaining activity at 10 µM (SIK2): 1.49% | remaining activity at 10 µM (STK32B/YANK2): 0.96% | remaining activity at 10 µM (LRRK2): 1.69% | remaining activity at 10 µM (CDK9/cyclin T1): 13.1% | remaining activity at 10 µM (CDK4/cyclin D3): 85.6% | remaining activity at 10 µM (IKKb/IKBKB): 33.4% | remaining activity at 10 µM (EPHA5): 52.7% | remaining activity at 10 µM (MYLK3): 67.6% | remaining activity at 10 µM (TLK1): 26.1% | remaining activity at 10 µM (ALK3/BMPR1A): 79.5% | remaining activity at 10 µM (p70S6K/RPS6KB1): 5.46% | remaining activity at 10 µM (MLCK2/MYLK2): 27.3% | viability at 120 h, 10 µM ([1]; 10 μM): 102% | viability at 120 h, 50 µM ([1]; 50 μM): 93% | cell proliferation and viability, odu as a percentage of the DMSO control ([2]; 10 μM): 99.5% | cell proliferation and viability, odu as a percentage of the DMSO control ([2]; 50 μM): 91.8% | cytotoxicity ([2]; 10 or 50 μM, up to 120 h): little or no cytotoxicity | remaining activity at 10 µM (MST2/STK3): 3.52% | remaining activity at 10 µM (CTK/MATK): 24.6% | remaining activity at 10 µM (CDK5/p35): 8.78% | remaining activity at 10 µM (CDK9/cyclin T2): 8.55% | remaining activity at 10 µM (PKG2/PRKG2): 1.99% | remaining activity at 10 µM (TRKB): 1.79% | remaining activity at 10 µM (TAOK3/JIK): 12.8% | remaining activity at 10 µM (YSK4/MAP3K19): 3.4% | remaining activity at 10 µM (DAPK1): 13.6% | remaining activity at 10 µM (MLK1/MAP3K9): 4.06% | remaining activity at 10 µM (ACK1): 7.33%
